Data from ChEMBL document CHEMBL3507680, “University of Dundee, Gates Library screen for HepG2 cell viability”.

Experiment: Human HepG2 cell viability assay in 384 well format
Format: toxicity, cell-based
Parameters: dose 125 nL, time 70.5 hour; cytotoxicity at 70.5 h: concentration not given beside the values
Details: HepG2 cells, read-out: Inhibition

| Structure (SMILES) | cytotoxicity at 70.5 h |
| --- | --- |
| COc1ccc(CCN2CC(n3nc(C)cc3C)C2)cc1 | -16.5% |
| Cc1nnnn1-c1cc(NCc2cccc(C#N)c2)ccc1F | -24.4% |
| COc1ccccc1N1CCN(Cc2cnc3c(c2)c(C)nn3C)CC1 | -11.4% |
| O=C(CCc1nc(C2CC2)no1)c1ccc(F)c(F)c1 | -17.2% |
| Cc1cccc2c1C(=O)NC(c1cnc(C3CCC3)s1)N2 (stereo not drawn) | -21.1% |
| CCS(=O)(=O)CCNC(=O)NC(C)c1ccc(C)s1 (stereo not drawn) | -8.94% |
| CCS(=O)(=O)CCNC(=O)NC(C)c1cc(C)sc1C (stereo not drawn) | -15.4% |
| CC(C)c1noc(CCNC(=O)N2CCN(c3cccs3)CC2)n1 | 40.3% |
| Cc1cc(C(=O)N(C)C)c2c(Br)cccc2n1 | -10.8% |
| CN(Cc1cccs1)S(=O)(=O)c1ccc(C(F)(F)F)nc1 | -20.9% |
| CN(CCn1cnnc1)S(=O)(=O)c1ccc(C(F)(F)F)nc1 | -15.6% |
| CN(CC(C)(C)C)S(=O)(=O)c1ccc(C(F)(F)F)nc1 | -25.1% |
| Cc1nn(C)c2ncc(CN3CCN(Cc4ccco4)CC3)cc12 | -18.7% |
| OC(COCc1ccco1)CN1CCC(Cn2cccn2)CC1 (stereo not drawn) | -14.1% |
| O=C(COCCOc1ccccc1)Nc1ccnn1CC1CCOC1 (stereo not drawn) | -21.2% |
| CS(=O)(=O)c1cccc(OCC(=O)N2CCCC2c2ccc[nH]2)c1 (stereo not drawn) | -7.78% |
| CN(Cc1cnn(C)c1)C(=O)c1cc2ccccc2c(=O)[nH]1 | -9.32% |
| COc1ccc(Cl)cc1NC(=O)CNc1ccn(CC(N)=O)n1 | 20.1% |
| CCC(=O)NC1CCCN(C(=O)Nc2cccc(COC(C)C)c2)C1 (stereo not drawn) | 7.06% |
| CC(C(=O)NCC1(c2c(F)cccc2F)CCCC1)S(C)(=O)=O (stereo not drawn) | -7.67% |
| O=C(c1[nH]c2ccc(Cl)cc2c1Cl)N1CCC2(CC1)OCCO2 | -0.999% |
| COc1ccc(CNC2CCN(c3ccccc3)C2)cc1O (stereo not drawn) | 19.7% |
| Nc1cc2c(nn1)CCN(C(=O)c1ccccc1Oc1cccnc1)C2 | -1.03% |
| CN(C)C1(CNC(=O)C/C=C/c2ccc(F)cc2)CCOCC1 | 22.9% |

| Structure (SMILES) | cytotoxicity at 70.5 h |
| --- | --- |
| N#Cc1cc(S(N)(=O)=O)ccc1NC1CCc2c(F)cccc21 (stereo not drawn) | -10.4% |
| Cn1ncc2cnn(CC(O)COCc3ccccc3Cl)c2c1=O (stereo not drawn) | -5.81% |
| COCCN(Cc1ccc(F)cc1C#N)CC(F)(F)F | -10.5% |
| CCN(CCNC(=O)C1CCCN(C(C)=O)C1)c1ccccc1C (stereo not drawn) | -10.5% |
| c1cnnc(NCC2CN(CCn3cccn3)CCO2)c1 (stereo not drawn) | -2.81% |
| Cc1nnc(CN2CCCC2c2ccc(Cl)c(Cl)c2)o1 (stereo not drawn) | -1.84% |
| CC(C(=O)N(C)C1CCCCC1)S(=O)(=O)Cc1csc(-c2cccs2)n1 (stereo not drawn) | -7.18% |
| CC(C(=O)NCC1CCCCC1)S(=O)(=O)Cc1csc(-c2cccs2)n1 (stereo not drawn) | -9.36% |
| NC(=O)C(NC(=O)COC1CCCCC1)c1ccccc1 (stereo not drawn) | -4.15% |
| NC(=O)C(NC(=O)COC1CCCC1)c1ccccc1 (stereo not drawn) | -6.85% |
| CCN(CC)S(=O)(=O)N1CCCC1C(=O)N1CCSCC1 (stereo not drawn) | -2.8% |
| CN(C)S(=O)(=O)N1CCCC1C(=O)N1CCSCC1 (stereo not drawn) | 22.8% |
| O=C(c1ccc(O)nc1)N1CCN(C(=O)c2ccc(F)cc2F)CC1 | -7.11% |
| CCN1CCN(c2ccc(C(=O)NCc3cc(C)no3)cc2F)CC1 | -4.13% |
| CCn1nc2c(cc1=O)CN(CC(=O)Nc1nccs1)CC2 | -2.47% |
| CCn1nc2c(cc1=O)CN(CC(=O)N(C)c1nccs1)CC2 | 25.4% |
| CC(C)n1nc2c(cc1=O)CN(CC(=O)N(C)c1nccs1)CC2 | 6.02% |
| O=C(NC(C(=O)Nc1cc[nH]n1)c1ccccc1)C1CCC1 (stereo not drawn) | -0.966% |
| COc1cc(C)c(CNC(C)c2csc(C)n2)cc1OC (stereo not drawn) | -2.42% |
| CCC(O)CN1CCN(C(=O)c2csc(COC)n2)CC1 (stereo not drawn) | -3.48% |
| CN(CC1CN(CCn2cc(C#N)cn2)CCO1)c1cccnn1 (stereo not drawn) | -6.68% |
| OC(COCc1cccs1)Cn1cc(Cl)cn1 (stereo not drawn) | -1.21% |
| OC(COCc1cccs1)Cn1cc(Br)cn1 (stereo not drawn) | -1.14% |
| Cc1cnn(CCNCc2csc(COc3ccccc3)n2)c1 | -0.421% |

| Structure (SMILES) | cytotoxicity at 70.5 h |
| --- | --- |
| CN(C)C(=O)CN(C)C(=O)c1csc(Br)c1 | 13.6% |
| COc1ncccc1NC(=O)C1CC(=O)N(Cc2ccccn2)C1 (stereo not drawn) | 0.729% |
| CN(Cc1cccc(Cl)c1)S(=O)(=O)N1CCOCC1 | 1.29% |
| COCCn1nc(C(=O)N(C)Cc2cnn(C)c2)ccc1=O | 42.3% |
| COc1cccc(CCNS(=O)(=O)c2ccc(NC(C)=O)cc2)c1 | 2.8% |
| CSc1ccc(C(CNC(=O)C2CC2)N2CCc3sccc3C2)cc1 (stereo not drawn) | -2.83% |
| CN(C)c1ccc(CNC(=O)c2ccc(Cl)cc2F)cc1 | 3.13% |
| CN(C)C(=O)CNC(=O)c1ccc(Cl)cc1F | 45.3% |
| Cc1nn(CC(=O)N2CCN(c3ccncc3)CC2)c(C)c1Cl | 1.17% |
| CNS(=O)(=O)c1ccc(C(=O)NC2CCOc3ccccc32)o1 (stereo not drawn) | -1.45% |
| Cc1nc2cc(O)nn2c(C)c1CCC(=O)N(C)Cc1cscn1 | 30.1% |
| CCS(=O)(=O)CC(=O)NC(c1ccc(F)cc1)C1CCCC1 (stereo not drawn) | 1.5% |
| CCN(CC)C(=O)CCc1c(C)nc2cc(O)nn2c1C | -3.01% |
| Cc1cccc(OCCC(=O)N(C)CCC#N)c1C | -8.74% |
| CCS(=O)(=O)CC(=O)NC(c1ccccc1)C1CCCCC1 (stereo not drawn) | 2.89% |
| CN(CCn1nc2ccccn2c1=O)CC(=O)N1CCCC1 | 4.26% |
| CN(Cc1nccn1CC(F)(F)F)C(=O)c1ccc(F)cc1F | -5.49% |
| CNS(=O)(=O)c1cc(C(=O)NC2CCOc3ccccc32)cc(C)c1C (stereo not drawn) | 8.79% |
| Cc1cccc(OCCC(=O)N(C)CCNS(C)(=O)=O)c1C | 0.181% |
| CCc1nc(C2CCCN(C(=O)c3cnn(CC)c3)C2)no1 (stereo not drawn) | 2.05% |
| COc1cccc2c1OCC(NC(=O)NC1CCN(C3CC3)CC1)C2 (stereo not drawn) | -5.93% |
| CC(O)CN1CCN(C(=O)c2cc3ccccc3c(=O)[nH]2)CC1 (stereo not drawn) | -1.26% |
| CN(CCN1CCOCC1)C(=O)CCCc1ccccc1 | -2.26% |
| CN(CCn1nc2ccccn2c1=O)CC(=O)NC1CC1 | -8.39% |

| Structure (SMILES) | cytotoxicity at 70.5 h |
| --- | --- |
| Cc1cnn(CC2CCCN2C(=O)CCc2c(C)noc2Cl)c1 (stereo not drawn) | -8.81% |
| O=C(c1ccc(F)c(F)c1)N1CCCC1CN1CCCC1 (stereo not drawn) | -1.66% |
| O=C(NCCc1nnc2n1CCC2)NC1(c2cccc(F)c2)CC1 | 7.47% |
| CCOc1nnc(CN(C)CC2CCCN2c2cccnn2)s1 (stereo not drawn) | -4.16% |
| CNC(=O)Cc1ccc(NC(=O)NC(C)C(C)C)cc1 (stereo not drawn) | -15.4% |
| CC(=O)N1CCN(S(=O)(=O)c2ccc(C)c(F)c2)CC1 | -4.35% |
| Cc1ccc(C(=O)NCCCNS(C)(=O)=O)cc1-n1cccc1 | -4.62% |
| CCNC(=O)NC(=O)CNC1(c2noc(C)n2)CCCCC1 | 28.5% |
| CC(c1nc(C2CC2)no1)N1CCN(c2ccc(C#N)cn2)CC1 (stereo not drawn) | -10.6% |
| NC(=O)C(CNC(=O)COCC(F)(F)F)Cc1ccc(F)cc1 (stereo not drawn) | -18.2% |
| CC(C)C(C)NC(=O)Nc1ccc(CS(C)(=O)=O)cc1 (stereo not drawn) | -8.12% |
| Cc1ccc(O)c(CNC2CCc3nc(C(C)C)nn3C2)n1 (stereo not drawn) | -11.7% |
| CC(C)(C)c1n[nH]c(C2CN(C(=O)c3cc(Cl)c[nH]3)CCO2)n1 (stereo not drawn) | -10.3% |
| Cc1ncsc1C(=O)Nc1cccc(OCC(F)F)n1 | -8.57% |
| Cc1nc(CCNC(=O)N2CCC(Cc3cnn(C)c3)C2)cs1 (stereo not drawn) | -29.6% |
| Cc1cccc(C(=O)N(C)Cc2cc(Br)cs2)n1 | -27.1% |
| COCC(=O)N1CCN(C(=O)c2scnc2C)CC1 | -11.5% |
| COC(=O)c1ccoc1COC(=O)CCc1ccc(OC)c(OC)c1 | -15.4% |
| CCOC(CC)C(=O)NCCC(=O)N1CCN(c2ncccn2)CC1 (stereo not drawn) | -18.6% |
| Cc1noc(C(C)N2CCN(CC(=O)N3CCOCC3)CC2)n1 (stereo not drawn) | 24% |
| COCCCN(CCOC)C(=O)Nc1ccc(C)cc1C | 0.857% |
| COCCCN(CCOC)C(=O)Nc1ccccc1Br | -15.2% |
| CC(C)(C)c1n[nH]c(C2CN(C(=O)c3cc(C4CC4)on3)CCO2)n1 (stereo not drawn) | 28.3% |
| CC(C)c1nc(C(=O)N2CCOCC2CC(=O)c2ccco2)c[nH]1 (stereo not drawn) | -14.6% |

| Structure (SMILES) | cytotoxicity at 70.5 h |
| --- | --- |
| CN(Cc1ccc(Cl)s1)C1CCCN(c2cccnn2)C1 (stereo not drawn) | -11.8% |
| Cc1cnn(CC2CCCCN2CC(=O)NCc2ccccn2)c1 (stereo not drawn) | -11% |
| CSCCC(=O)N1CCCC1c1ccsc1 (stereo not drawn) | 13.3% |
| CCc1nnc2n1CC(CNCc1ccncc1)CC2 (stereo not drawn) | -6.39% |
| CCOc1ncccc1NC(=O)c1cc2c(s1)CCC2 | 1.84% |
| COc1ccc(CN(C)C(=O)CCc2c(C)nc(C)[nH]c2=O)cc1OC | -7.96% |
| COc1cccc(NC(=O)N(CCO)Cc2ccsc2)c1 | -3.88% |
| CC(C)(C(=O)NCC1CC1)c1ccccc1F | -4.02% |
| Cc1cnn(CC(C)NCc2nc(-c3cccnc3)no2)c1 (stereo not drawn) | 3.38% |
| CCc1ccc(C(=O)N2CCCC(n3cncn3)C2)o1 (stereo not drawn) | -2.71% |
| O=C(c1ccc(Br)o1)N1CCCC(n2cncn2)C1 (stereo not drawn) | -3.18% |
| NC(=O)CSCCC(=O)N1CCCC1c1ccsc1 (stereo not drawn) | -6.66% |
| CCCc1n[nH]c(C2CN(C(=O)CCCn3cccn3)CCO2)n1 (stereo not drawn) | -7.13% |
| CCCc1n[nH]c(C2CN(CCn3cccn3)CCO2)n1 (stereo not drawn) | -6.79% |
| CCC(CC)c1cc(C(=O)N2CCCC(n3cncn3)C2)on1 (stereo not drawn) | -1.84% |
| c1cnc(N2CCCC3(COCCN(c4nncs4)C3)C2)cn1 (stereo not drawn) | -6.49% |
| NCC1CCCCN1C(=O)Cc1cccc(Br)c1 (stereo not drawn) | -4.6% |
| NCC1CCCCN1C(=O)Cc1cccc(Cl)c1 (stereo not drawn) | -6.28% |
| NC(=O)COc1ccc(CNCc2ccc(F)cc2F)cc1 | -5.1% |
| Cc1ccccc1CC(C)NCc1c(C)nn(C)c1N1CCOCC1 (stereo not drawn) | -0.684% |
| Cc1ccccc1CN1CC[C@H]2C[C@H](C(=O)N(C)C)O[C@H]2C1 | -12.7% |
| COc1ccc(CN2CCC3(CC2)NC(=O)CC3c2cnn(C)c2)cc1 (stereo not drawn) | -8.08% |
